system: Endogenous Huntingtin Protein (capture with MW1 (expanded polyglutamine) or MAB2166 antibody); assay: Endogenous Huntingtin Protein Assay (ELISA-based Meso Scale Discovery electrochemiluminescence assay); assay type: cell-based; settings: MSD electrochemiluminescence platform
Method in brief: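 MSD electrochemiluminescence sandwich immunoassay: plates coated with 1 μg/mL MW1 or MAB2166 capture antibody, samples incubated overnight at 4 °C. Detection with rabbit monoclonal #5656S then SULFO-TAG anti-rabbit (each 0.25 μg/mL, 1 h RT).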

Molecule	IC50 [nM]
[2H]C([2H])([2H])n1cc(-c2cnc(-c3ccc(N4CC[C@@H](NC(C)(C)C)C4)nn3)c(O)c2)cn1 [Compound 23, 2-{6-[(3R)-3-(tert-butylamino)pyrrolidin-1-yl]pyridazin-3-yl}-5-[1-(^2H3)methyl-1H-pyrazol-4-yl]pyridin-3-ol]	≤ 100
C[C@@H]1CN(c2ccc(-c3ncc(-c4cc(F)c5nn(C)cc5c4)cc3O)nn2)C[C@H](C)N1 [Compound 69, 2-{6-[(3R,5S)-3,5-dimethylpiperazin-1-yl]pyridazin-3-yl}-5-(7-fluoro-2-methyl-2H-indazol-5-yl)pyridin-3-ol and 2-{6-[(3S,5R)-3,5-dimethylpiperazin-1-yl]pyridazin-3-yl}-5-(7-fluoro-2-methyl-2H-indazol-5-yl)pyridin-3-ol]	≤ 100
CN(c1ccc(-c2ncc(-c3cc(F)c4nn(C)cc4c3)cc2O)nn1)C1CC(C)(C)NC2(CC2)C1 (centres unmarked) [Compound 64, 2-{6-[(5,5-dimethyl-4-azaspiro[2.5]octan-7-yl)(methyl)amino]pyridazin-3-yl}-5-(7-fluoro-2-methyl-2H-indazol-5-yl)pyridin-3-ol]	≤ 100
CN(c1ccc(-c2ncc(-n3ccnc3)cc2O)nn1)C1CC(C)(C)NC(C)(C)C1 [Compound 15, 5-(1H-imidazol-1-yl)-2-{6-[methyl(2,2,6,6-tetramethylpiperidin-4-yl)amino]pyridazin-3-yl}pyridin-3-ol]	≤ 100
Cn1nc2cc(-c3cnc(-c4cnc(N5CCN[C@@H](C6CC6)C5)nn4)c(O)c3)cnc2n1 [Compound 157, 2-{3-[(3S)-3-cyclopropylpiperazin-1-yl]-1,2,4-triazin-6-yl}-5-(2-methyl-2H-[1,2,3]triazolo[4,5-b]pyridin-6-yl)pyridin-3-ol]	≤ 100
Cc1cn2cc(-c3cnc(-c4ccc(N5C[C@@H](C)N[C@@H](C)C5)nn4)c(O)c3)cnc2n1 [Compound 115, 2-{6-[(3R,5S)-3,5-dimethylpiperazin-1-yl]pyridazin-3-yl}-5-(2-methylimidazo[1,2-a]pyrimidin-6-yl)pyridin-3-ol and 2-{6-[(3S,5R)-3,5-dimethylpiperazin-1-yl]pyridazin-3-yl}-5-(2-methylimidazo[1,2-a]pyrimidin-6-yl)pyridin-3-ol]	100 to 500
5-[(5-methylpyrazin-2-yl)amino]-2-{6-[(3R)-3-(propan-2-yl)piperazin-1-yl]pyridazin-3-yl}pyridin-3-ol and 5-[(5-methylpyrazin-2-yl)amino]-2-{6-[(3S)-3-(propan-2-yl)piperazin-1-yl]pyridazin-3-yl}pyridin-3-ol [Compound 133]	≤ 100
CC1CN(c2ccc(-c3ncc(Nc4cccnc4)cc3O)nn2)CCN1 (centres unmarked) [Compound 117, 2-[6-(3-methylpiperazin-1-yl)pyridazin-3-yl]-5-[(pyridin-3-yl)amino]pyridin-3-ol]	500 to 1000
2-(6-{[(3R,4S)-3-fluoro-2,2,6,6-tetramethylpiperidin-4-yl]oxy}pyridazin-3-yl)-5-[2-methyl-8-(trifluoromethyl)imidazo[1,2-a]pyridin-6-yl]pyridin-3-ol and 2-(6-{[(3S,4R)-3-fluoro-2,2,6,6-tetramethylpiperidin-4-yl]oxy}pyridazin-3-yl)-5-[2-methyl-8-(trifluoromethyl)imidazo[1,2-a]pyridin-6-yl]pyridin-3-ol [Compound 46]	100 to 500
CN(c1ccc(-c2ncc(-c3ccn(C)n3)cc2O)nn1)C1CC(C)(C)NC(C)(C)C1 [Compound 13, 5-(1-methyl-1H-pyrazol-3-yl)-2-{6-[methyl(2,2,6,6-tetramethylpiperidin-4-yl)amino]pyridazin-3-yl}pyridin-3-ol]	≤ 100
Cc1nc2ccc(-c3cnc(-c4ccc(N5C[C@@H](C)N[C@@H](C)C5)nn4)c(O)c3)cn2n1 [Compound 99, 2-{6-[(3R,5S)-3,5-dimethylpiperazin-1-yl]pyridazin-3-yl}-5-(2-methyl[1,2,4]triazolo[1,5-a]pyridin-6-yl)pyridin-3-ol and 2-{6-[(3S,5R)-3,5-dimethylpiperazin-1-yl]pyridazin-3-yl}-5-(2-methyl[1,2,4]triazolo[1,5-a]pyridin-6-yl)pyridin-3-ol]	100 to 500
